{"source": "patent US20240342121A1", "about": "“THE USE OF BETA-HYDROXYBUTYRATES FOR THE TREATMENT OR PREVENTION OF ANEURYSMS AND DISSECTIONS” (priority 2021, published 2024)", "key": {"[1]": {"tested_on": "angiotensin II (AII)-induced AAA", "test": "AII-induced AAA mouse model, post-treatment", "type": "in vivo", "conditions": "injection every other day for two weeks, FIG. 2E"}, "CaCl2-induced AAA [2]": {"tested_on": "CaCl2-induced AAA", "test": "CaCl2-induced AAA animal model, post-treatment", "type": "in vivo, mouse", "conditions": "n=10, FIG. 5C"}, "senescent SMCs [3]": {"tested_on": "senescent SMCs", "test": "Cellular viability (cytotoxicity) assay of senescent and normal SMCs", "type": "cell-based", "conditions": "premature senescence by H2O2, Arsenite or Nutlin 3a, FIG. 2A", "procedure": "(§1) FIGS. 2A-2L. (a) Cytotoxicity assay of normal smooth muscle cells (NS) and senescent smooth muscle cells (SMCs). Replicative senescent SMCs (RS) and premature senescent SMCs, stimulated by H2O2 (HP), arsenic (Ars), and Nutlin 3a (Nut) treatment were treated with βHB, s-βHB, and ABT-737. (b) Flow cytometry analysis of apoptosis by βHB or s-βHB in radiation (10 Gy)-induced senescent SMC. (c) Quantitation of apoptotic cell and senescent cell after treating βHB and s-βHB in radiation-induced senescent SMC. (d) Representative aorta image of AII-infused mice with post-treatment of ABT-737, βHB and s-βHB. (e) External diameter of abdominal aorta infused with AII and post-treated with ABT-737 βHB and s-βHB. (f) SA-βGal activity assay of the whole aorta infused with AII, and post-treated with ABT-737, KD, or KE. (g) Quantitation of senescent area on aorta of AII-infused mice, and post-treated with KD, KE and ABT-737. (h) TUNEL assay on the abdominal aorta of AII infused mice, and treated with ABT-737, βHB, or s-βHB. SM-α Actin (SMA) and DAPI are co-stained after TUNEL reaction. […]\nThe clearance of senescent cells that accumulate during the aneurysm development is required to reduce the volume of aneurysm plaque. Thus, the senotherapeutic potential of βHB to reverse AAA progression was evaluated. […]"}, "senescent SMCs [4]": {"tested_on": "senescent SMCs", "test": "Flow cytometry (FACS) apoptosis analysis, PI and Annexin V", "type": "cell-based", "conditions": "FIGS. 2B, 2C", "procedure": "as §1, with “reaction. (i) Caspase 3 activity assay on normal SMCs (NC) treated with βHB, or s-βHB, and ABT-737 comparing to normal cells pretreated with Nutlin-3a. (j) Caspase 3 activity assay on senescent SMCs (SNC) treated with βHB, or s-βHB, and ABT-737 compared to senescent cells pretreated with pifithrin-α.” for “reaction.”"}, "CaCl2-induced AAA [5]": {"tested_on": "CaCl2-induced AAA", "test": "CaCl2-induced AAA animal model, post-treatment", "type": "in vivo, mouse", "procedure": "FIGS. 5A-5J. (a) Representative image of aorta which developed CaCl2)-induced AAA, and post-treated with KD, KE, βHB, s-βHB, or ABT-737. KD is provided to mice for 4 weeks, KE is administrated with drinking water, βHB, s-βHB or ABT-737 are IP injected for 2 weeks with 48h intervals. (b) Incidence of AAA by CaCl2) treatment and proportion of mice recovered from the AAA after post-treatment of KD, KE, βHB and s-βHB for 2 weeks. (c) Time-dependent observation of inner diameter after CaCl2) treatment and post-treatment of KD or KE (28˜56 days after surgery). (d) Comparison of ultrasound images of CaCl2)-induced AAA to the identical aorta post-treated with βHB for 2 weeks. (e) H&E staining of aorta from the mice developed with CaCl2)-induced AAA, and post-treated with KD, KE, βHB, and s-βHB. (f) SA β-Gal activity assay on aorta which developed CaCl2)-induced AAA, and post-treated with KD, KE, βHB, s-βHB, or ABT-737. (g) Quantitation of senescent area on aorta developed with CaCl2)-induced AAA, and post-treated with KD, KE, βHB, s-βHB. (h) Verhoeff Van Gieson/EVG staining of abdominal aorta developed with CaCl2)-induced AAA, post-treated with KD, KE, βHB and s-βHB. (i) Average number of elastic fibers on abdominal aorta presented at FIG. 5H. (j) Measurement of Pulse Wave Velocity (PWV) on CaCl2)-infused mice with post-treatment of KD, KE, βHB, and s-βHB.\nTo confirm the possibility that the therapeutic effect of βHB on AAA is not only applied to AII-induced AAA, the CaCl2)-induced AAA animal model was also examined as well (FIG. 5A).\nTo further validate the therapeutic efficacy of s-βHB on aneurysms, we used a CaCl2-induced AAA animal model as well as an angiotensin II infusion model. […] Two-way ANOVA, s-βHB vs βHB, #P<0.01, n=10. Since the elimination of senescent SMCs is critical for the recovery of AAA, we investigated that s-βHB is also effective to remove senescent cells in CaCl2)-induced aneurysms. […] Student's T-test for s-βHB vs βHB, ^#P<0.05, n=8."}, "[6]": {"conditions": "in vivo", "source_text": "We established an in vivo tolerance test of βHB and s-βHB (FIGS. 9A and 9B). […] The reduction of the inner diameter of the aortic wall is also dramatic in the treatment of s-βHB in FIG. 9F (Two-way ANOVA, ^###P<0.005, n=10)."}, "[7]": {"tested_on": "angiotensin II (AII)-induced AAA", "test": "AII-induced AAA mouse model, post-treatment", "type": "in vivo", "source_text": "To determine if senescence is a major cause of aneurysm development, the association between senescence and aneurysms using the angiotensin II (AII)-induced AAA model was investigated. Mice were infused AII for four weeks using osmotic mini-pump implantation into Apoe^−/− transgenic mouse.\nTo investigate the therapeutic potential of ketotherapy for abdominal aortic aneurysm (AAA), Ketogenic-diet (KD) and Ketone-ester (KE) were provided to angiotensin II (AII)-induced mouse model of AAA (FIG. 6). […] After completing AII infusion, the mice were post-treated with KD and KE for two to four weeks.\nTo investigate the time-dependent reduction of aorta diameter, the inner diameter of the aorta using ultrasound analysis was measured."}, "[8]": {"tested_on": "Oct4 overexpressed senescent SMCs", "test": "Oct4 overexpressed senescent SMCs (SA β-Gal, Western blot)", "type": "cell-based", "conditions": "Oct4 overexpression by CRISPR-dCas9-VP64, FIG. 14A", "source_text": "FIGS. 14A-14B show (a) SA β-Gal activity on Oct4 overexpressed SMCs with or without βHB treatment (2 days). Irradiated SMCs were infected by Lentivirus containing Crispr-dCas9-VP64_Oct4 plasmid prior to treating βHB. The arrow indicates localized senescent cell mass. (b) Western blot analysis after lentivirus (Crispr-dCas9-VP64_Oct4) infection into senescent SMCs without βHB treatment for 1 day or 2 days.\nWe proposed that Oct4 upregulation in senescence forms senescent spheroid-like cell mass and asymmetric configuration of aneurysms. To validate our central hypothesis, we overexpressed Oct4 in senescent SMCs using the CRISPR-dCas9-VP64 system to determine the role of Oct4. […] Localized increase of senescence may be highly associated with asymmetric dilation of aneurysms. […] We supposed that βHB prevents or reverses Oct4-induced senescence of SMCs, consequently reducing the size of aneurysms. To investigate the role of βHB in aneurysms, we assess the possibility of cellular reprogramming in senescent SMCs in the condition of Oct4 overexpression. […] In particular, a moderate increase of FAP (Fibroblast Activation Protein) provides a potential for reprogramming resulting in transdifferentiation of SMCs to myofibroblast. Recovered SM22 expression in Oct4 overexpressed senescent SMCs supposed that βHB converts the Oct4 function in dedifferentiation into a reprogramming-related role. We considered an βHB-induced epigenetic alteration of senescent cells contributing to Oct4-dependent cellular reprogramming based on this unique observation."}}, "note": "Entries after “also recorded” stand apart in the source; their conditions may differ."}
{"compound": "C[C@H](O)CC(=O)O", "note": "[s-βHB, (S)-3-hydroxybutyrate]", "values": [{"measurement": "external diameter of the abdominal aorta", "setting": "[1]", "result": "significantly reduced; also recorded: strongly reduced"}, {"measurement": "time-dependent reduction of the external diameter of the aortic wall", "setting": "CaCl2-induced AAA [2]", "result": "more effective than βHB"}, {"measurement": "number of senescent SMCs versus normal SMCs", "setting": "senescent SMCs [3]", "result": "selectively reduced the number of senescent SMCs and not normal SMCs; also recorded: significantly reduced"}, {"measurement": "apoptosis of senescent SMCs", "setting": "senescent SMCs [4]", "result": "more effectively than βHB"}, {"measurement": "recovery from CaCl2-induced AAA", "setting": "CaCl2-induced AAA [5]; FIGS. 5A and 5B", "result": "effectively reversed aneurysms"}, {"measurement": "senescent cells, SA β-gal assay", "setting": "CaCl2-induced AAA [5]; FIGS. 5F and 5G", "result": "significantly reduced senescent cells"}, {"measurement": "half-life", "setting": "[6]", "result": 2, "unit": "h"}, {"measurement": "TUNEL assay, apoptosis of senescent plaque in the aneurysm", "setting": "[7]; FIG. 2H", "result": "induced targeted apoptosis of senescent plaque"}, {"measurement": "lesion area", "setting": "[7]; FIG. 9G", "result": "relatively more effective than βHB"}, {"measurement": "body weight and lipids levels", "setting": "[7]; FIGS. 9H-9J", "result": "no significant alteration"}, {"measurement": "recovery rate of aneurysms", "setting": "[7]; compared to βHB", "result": "significant improvement in the recovery rate of aneurysms compared to the βHB treatment"}, {"measurement": "AAA rate after post-treating", "setting": "[7]; incidence of AAA by angiotensin II infusion 67%, n=10, FIG. 9D", "result": 27, "unit": "%"}, {"measurement": "reduction of the inner diameter of the aortic wall", "setting": "[7]; n=10, FIG. 9F", "result": "dramatic"}, {"measurement": "localized senescence, SA β-Gal activity", "setting": "[8]", "result": "significantly reverses or prevents the development of localized senescence"}]}
